Source: paper PMC9918900, “New Succinimide–Thiazolidinedione Hybrids as Multitarget Antidiabetic Agents: Design, Synthesis, Bioevaluation, and Molecular Modelling Studies” (Molecules, 2023)

Key:
[1] = test system: streptozotocin-induced diabetic rats; experiment: effect on body weight; format: in vivo, Wistar rats; conditions: glibenclamide group, 0.5 mg/kg
Experimental: (§1) The antidiabetic activity of the synthesized compound 10d was evaluated using a streptozotocin-induced diabetic rats model.
(§2) Male Wistar rats weighing 150 to 230 gm were used for the study which were housed in polyacrylic cages (no more than six animals per cage) with dimensions of 38 × 23 × 10 cm and maintained under standard laboratory conditions with a dark/light cycle of 14 h of dark and 10 h of light at a temperature of 25 °C. The animals were provided with a standard diet (dry pellet) and water ad libitum. Before the start of the experimental procedures, the rats were acclimatized to laboratory conditions for 10 days. All the experiments were approved and performed as per the guidelines of the Departmental Research Ethics Committee under letter No. DREC/050 [49].
(§3) Non-insulin-dependent diabetes mellitus was induced in fasted rats weighing 150–230 gm using a single dose of streptozotocin (STZ) at a dose of 60 mg/kg intraperitoneally after 15 min of the administration of nicotinamide at a 120 mg/kg dose i.p. Nicotinamide was prepared in normal saline while in citrate buffer (pH 4.5), STZ was prepared. After the induction of diabetes, the increase in the plasma glucose level was measured at 72 h and then measured on the 7th day to confirm hyperglycemia. For the diagnosis of diabetes, the threshold value of the fasting plasma glucose level was considered to be more than 126 mg/dl. For the study, only the animals with permanent NIIDM were utilized.
(§4) The animals were classified into 5 groups with 6 animals in each group (n = 6). Group I comprised of normal control rats which were daily administered drinking water only; group II served as diabetic control rats (disease group); group III served as the positive control and were administered 0.5 mg/kg of the standard drug glibenclamide; and group IV and V served as the test group rats and were administered the test compound 10d at 10 mg/kg and 20 mg/kg, respectively, for twenty-eight days. The fasting glucose concentration was measured on the 0, 7th, 14th, and 28th day of the administration of the extract. During the experimental tenure, the weights of the rats were determined daily and the mean change was recorded.

[2] = test system: streptozotocin-induced diabetic rats; experiment: liver and renal serum biomarkers; format: in vivo, Wistar rats; conditions: 0.5 mg/kg, 28th day
Experimental: as §3, §4
(§5) The animals were euthanized (sacrificed) via cervical dislocation on the 28th day to observe the biochemical parameters. The parameters studied were triglyceride (TGL), cholesterol, low-density lipoprotein, and high-density lipoprotein (LDL and HDL). The Minias Globe Diagnostic kits were used for cholesterol and TGL. Semi-autoanalyzers were used for the analysis. The serum samples from the rats were also checked for alanine aminotransferase (ALT), aspartate aminotransferase (AST), lactate dehydrogenase (LDH), serum alkaline phosphatase (ALP), and creatinine and urea levels utilizing commercially available kits of Crest Biosystems. The statistical analysis was also performed as per the previous procedure.

[3] = test system: streptozotocin-induced diabetic rats; experiment: in vivo antidiabetic activity, fasting plasma glucose level; design: species or system Wistar rats; conditions: STZ-induced diabetic rats, 0.5 mg/kg, 28th day
Experimental: as §1, §2, §3
The animals were classified into 5 groups with 6 animals in each group (n = 6). […] The fasting glucose concentration was measured on the 0, 7th, 14th, and 28th day of the administration of the extract. During the experimental tenure, the weights of the rats were determined daily and the mean change was recorded.

[4] = test system: streptozotocin-induced diabetic rats; experiment: effect on serum lipid profile of diabetic animals; format: in vivo, Wistar rats; conditions: compared to diabetic control group
Experimental: as §1, §2, §3, §4, §5

COc1ccc(Cl)cc1C(=O)NCCc1ccc(S(=O)(=O)NC(=O)NC2CCCCC2)cc1 [Glibenclamide, glibenclamide, reference compound]
Change in Body Weight, After Induction [1]: 160.52 ± 2.23 gm
Change in Body Weight, Before Induction [1]: 180.66 ± 1.67 ^ns gm
Change in Body Weight, After Treatment ([1]; 28 days): 176.90 ± 4.45 gm
ALP [2]: 124.42 ± 2.35 U/L
ALT [2]: 76.23 ± 2.13 U/L
AST [2]: 80.36 ± 2.12 U/L
Creatinine [2]: 0.44 ± 0.04 ^ns mg/dl
LDH [2]: 826.21 ± 5.60 U/L
Urea [2]: 42.45 ± 2.21 mg/dL
blood glucose level [3]: 72.44 ± 3.58 mg/dL
HDL level [4]: greater than before
LDL in serum [4]: significant decline
total cholesterol level in serum [4]: significant decline
triglyceride in serum [4]: significant decline
